Data: US11919886B2, “4,9-dioxo-4,9-dihydronaphtho[2,3-B]furan-3-carboxamide derivatives and uses thereof for treating proliferative diseases and infectious diseases” (Academia Sinica, priority 2016, dated 2024)
In brackets after ≈: the same amount, converted by molar mass. Where two headings read alike, the source gives them in different places.

How the values were obtained:
[1] = test system: subcutaneous H1975 tumors; assay: H1975 xenograft tumor growth in athymic nude mice (compound 1); type: in vivo; conditions: for average tumor size: day 27
Method: Panel (A): The structure of compound 1. Panel(B): A chart showing exemplary results for the cytotoxicity assay of Compound 1-treated cancer cells for 72 hours. […] Panel (C): Photos showing the different tumor sizes and TUNEL assay results between DMSO control and Compound 1-treated mice. H1975 (3×10^6) cells were subcutaneously injected into male nu/nu mice, and daily treated intraperitoneally with Compound I at indicated dose or DMSO for 4 weeks. During the treatment, tumor size and body weights were measured every 3 to 4 days; and the histology was confirmed by H&E staining (left lower panel of panel (C).
Exemplary results are shown in Panel (C) of FIG. 1. […] (Panel (C) of FIG. 1). In addition, the body weight of the mice was calculated when the tumor size was measured. Serum was also collected, and biological analysis in vitro was performed. […] Inhibition of tumor growth of Compound 1 with low cytotoxicity in vivo was observed.

H1975 cells = assay: Double thymidine block, S phase progression by flow cytometry; type: cell-based, human; conditions: H1975, release from double thymidine block
Method: To evaluate the effects of compound Ion a single round of DNA replication in a cell cycle, H1975 cells were synchronized using a double thymidine block followed by release with DMSO or compound 1-containing medium for 2 to 14 hours. Exemplary results are shown in Panel (C) of FIG. 2. H1975 cells were grown to 60-70% confluence. Then, 2 mM thymidine (Sigma) was added to the cells and incubated for 17 hours. The cells were then washed, and fresh serum-containing medium was added. After 10 hours, thymidine was added again, and the cells were incubated for 17 hours; the cells were then washed with PBS, replaced with fresh serum-containing medium, and the data were collected at the indicated time points. Through flow cytometry analysis, the control cells were observed as synchronized in the G0-G1 phase from 0 hours, increased in the S phase from 4 to 6 hours, and finally progressed to the G2 phase after 8 hours. However, many of the compound 1-treated cells remained in the S phase at all time points. (Panel (C) of FIG. 2). A double thymidine block was performed and the data were collected at the indicated time points. Compared to DMSO, compound 1-treated H1975 cells required more time for the S phase (approximately 4 hours).

MCM complex (MCM2-MCM7) = assay: Immunoblotting of MCM complex protein expression in H1975 cell lysates; type: cell-based, human
Method: To evaluate the effects of Compound 1 on modulating the expression of different MCM protein components, immunoblotting of DMSO or compound 1-treated (at 140 nM) H1975 cell lysates was performed. Exemplary results are shown in Panels (A)-(C) of FIG. 3. H1975 cell were treated with DMSO and compound 1 (140 nM). Compound 1-treated H1975 cells were harvested at 24 hours, 48 hours, and 72 hours, and the protein expression levels of MCM complex were analyzed by immunoblotting. […] (Panel (A) of FIG. 3.).
To evaluate the effects of Compound 1 on triggering MCM2, MCM6, and MCM7 degradation through transcriptional or post-translational regulation, compound 1-treated H1975 cells were harvested at 48 hours with or without 10 μM MG132 treatment for 12 hours; and the protein expression levels of MCM2/6/7 were examined by immunoblotting. […] It was observed that MG132 proteasome inhibitor may reverse the compound 1 effects on MCM2/6/7 protein expression levels.

MCM2 = target: T1, MCM2 (Homo sapiens, UniProt P49736); assay: Chromatin-bound MCM2 after double thymidine block (immunoblotting); type: cell-based; conditions: H1975, 4.5 hour, 6 hour and 9 hour treatment
T1 construct: The MCM2 proteins were pulled down by incubating the H1975 lysate with compound 1-conjugated magnetic beads; endogenous in cells; host or cells: H1975
T1 sequence (P49736 whole entry): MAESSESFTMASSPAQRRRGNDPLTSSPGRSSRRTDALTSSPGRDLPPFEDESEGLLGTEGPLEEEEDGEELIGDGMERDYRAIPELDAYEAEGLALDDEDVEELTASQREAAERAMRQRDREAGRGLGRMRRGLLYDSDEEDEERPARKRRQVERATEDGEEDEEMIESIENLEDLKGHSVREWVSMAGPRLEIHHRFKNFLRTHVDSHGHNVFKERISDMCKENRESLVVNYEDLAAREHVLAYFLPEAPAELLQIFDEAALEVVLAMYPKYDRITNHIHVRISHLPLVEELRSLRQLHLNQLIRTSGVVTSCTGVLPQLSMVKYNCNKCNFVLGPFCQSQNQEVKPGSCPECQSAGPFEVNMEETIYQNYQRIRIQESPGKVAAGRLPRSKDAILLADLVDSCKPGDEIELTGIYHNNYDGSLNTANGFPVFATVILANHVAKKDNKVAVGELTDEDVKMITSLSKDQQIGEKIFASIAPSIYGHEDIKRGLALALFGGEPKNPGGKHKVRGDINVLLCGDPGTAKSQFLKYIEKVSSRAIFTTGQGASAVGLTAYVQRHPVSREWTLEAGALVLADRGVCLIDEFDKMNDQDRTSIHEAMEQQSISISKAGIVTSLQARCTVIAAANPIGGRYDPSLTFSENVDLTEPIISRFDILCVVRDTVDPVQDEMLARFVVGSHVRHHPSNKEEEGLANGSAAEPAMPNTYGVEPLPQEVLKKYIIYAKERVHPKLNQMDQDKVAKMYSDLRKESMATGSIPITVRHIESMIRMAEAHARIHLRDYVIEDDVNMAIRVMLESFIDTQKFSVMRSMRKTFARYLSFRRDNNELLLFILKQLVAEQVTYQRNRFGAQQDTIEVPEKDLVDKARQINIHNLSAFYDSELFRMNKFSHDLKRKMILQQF
Method: To explore whether Compound 1-induced protein degradation also interfered with the DNA binding ability of MCM2, HI 975 cells were synchronized using a double thymidine block followed by release with DMSO or compound 1 treatment for 3 to 9 hours. Exemplary results are shown in Panel (D) of FIG. 3. Then, the cells were harvested to obtain the chromatin-bound fraction, and MCM2 was detected by immunoblotting.

[2] = test system: Streptococcus infantarius subsp. coli; assay: MIC, broth micro dilution method; type: cell-based; conditions: strain ATCC BAA-103, S. bovis
Escherichia coli [3] = assay: MIC, broth micro dilution method; type: cell-based
Pseudomonas aeruginosa = assay: MIC, broth micro dilution method; type: cell-based
Shigella sonnei = assay: MIC, broth micro dilution method; type: cell-based
Klebsiella pneumoniae = assay: MIC, broth micro dilution method; type: cell-based
Escherichia coli [4] = assay: Bacterial growth by Alamar Blue in Muller-Hinton broth; type: cell-based; conditions: 16-24 hours, read-out: % of the activities in the presence of ~10 μM compound, Escherichia coli
Method: (§1) Compound 1 and its analogues shown in Table 6 below were tested for their activities on cancer cells and bacterial cells using assays described herein. H1975, MDA-MB231, and MCF7 cells were incubated in the presence of the compounds in cell growth medium containing 10% fetal bovine serum for two days in a mammalian cell culture incubatoe. Cell viability were monitored by using Cell-TiterGlo. Staphylococcus aureus and Escherichia coli were incubated in the presence of the compounds in Muller-Hinton broth for 16-24 hours in a 37° C. incubator. Bacterial growth was monitored by using Alamar Blue (Invitrogen).

Staphylococcus aureus = assay: as above; type: cell-based
Method: as §1

[5] = test system: PC9 (human lung adenocarcinoma cells, EGFR del 19 mutation and sensitive to gefitinib); assay: SRB cytotoxicity assay, PC9; conditions: 72 h
[6] = test system: CL1-5 (human lung adenocarcinoma cells, EGFR wild type and resistant to gefitinib); assay: SRB cytotoxicity assay, CL1-5; conditions: CL1-5, 72 h
[7] = test system: PC9/IR (human lung adenocarcinoma cells, EGFR del 19 mutation but resistant to gefitinib); assay: SRB cytotoxicity assay, PC9/IR; conditions: 72 h

How did the average tumor size ([1]; 1 mg/kg daily intraperitoneal) turn out when `Cc1oc2c(c1C(=O)NCCCn1ccnc1)C(=O)c1ccccc1C2=O` [Compound 1, N-(3-(1H-Imidazol-1-yl)propyl)-2-methyl-4,9-dioxo-4,9-dihydronaphtho [2,3-b]furan-3-carboxamide] was run?
Its average tumor size is 701.2±196.5 mm^3.

What about the “body weight and serum biological analysis, control group vs compound treatment group” value ([1]; 1 mg/kg or 4 mg/kg daily intraperitoneal, 4 weeks) of the same molecule?
The value was “Few differences”.

What about the average tumor size ([1]; 4 mg/kg daily intraperitoneal) of the same molecule?
The average tumor size was 518.0±93.0 mm^3.

What about the “more time required for the S phase compared to DMSO” value (H1975 cells) of the same molecule?
The value was “approximately 4 hours”.

What about the “expression of MCM3, MCM4, or MCM5” value (MCM complex (MCM2-MCM7); H1975, 140 nM, 24, 48, 72 hours) of the same molecule?
Its value is “lower only at 72 hours”.

What about the “expression levels of MCM2, MCM6, and MCM7” value (MCM complex (MCM2-MCM7); H1975, 140 nM, 24 hour and 72 hour) of the same molecule?
Its value is “significantly decreased”.

And the “MCM protein levels and messenger RNA levels” value (MCM complex (MCM2-MCM7); H1975, 24 hours)?
The value was “substantial decrease in MCM protein levels without a change in their messenger RNA levels”.

And the “chromatin-bound form of MCM2 vs DMSO control” value (MCM2)?
Its value is “significantly reduced”.

And the MIC ([2]; read-out: MIC (μg/ml) 100%)?
The MIC was 4 µg/mL (≈ 11 µM).

What about the MIC ([2]; read-out: MIC (μg/ml) 50%) of the same molecule?
The MIC was 2 µg/mL (≈ 5.5 µM).

What about the MIC (Escherichia coli [3]; read-out: MIC (μg/ml) 100%, strain ATCC33625, gram negative) of the same molecule?
Its MIC is > 32 µg/mL.

What about the MIC (Escherichia coli [3]; strain ATCC33625, gram negative, read-out: MIC (μg/ml) 50%) of the same molecule?
Its MIC is > 32 µg/mL.

What about the MIC (Pseudomonas aeruginosa; read-out: MIC (μg/ml) 100%, strain ATCC27853, gram negative) of the same molecule?
Its MIC is > 32 µg/mL.

And the MIC (Pseudomonas aeruginosa; strain ATCC27853, gram negative, read-out: MIC (μg/ml) 50%)?
The MIC was > 32 µg/mL.

And the MIC (Shigella sonnei; read-out: MIC (μg/ml) 100%, strain ATCC9290, gram negative)?
The MIC was > 32 µg/mL.

What about the MIC (Shigella sonnei; strain ATCC9290, gram negative, read-out: MIC (μg/ml) 50%) of the same molecule?
The MIC was > 32 µg/mL.

What about the MIC (Klebsiella pneumoniae; read-out: MIC (μg/ml) 100%, strain ATCC700603, gram negative) of the same molecule?
The MIC was > 32 µg/mL.

And the MIC (Klebsiella pneumoniae; strain ATCC700603, gram negative, read-out: MIC (μg/ml) 50%)?
Its MIC is > 32 µg/mL.

What about the activity at 10 µM (Escherichia coli [4]) of the same molecule?
The activity at 10 µM was > 100%.

What about the MIC (Staphylococcus aureus) of the same molecule?
Its MIC is 2 µg/mL (≈ 5.5 µM).

What about the activity at 10 µM (Staphylococcus aureus; ~10 μM, 16-24 hours, Alamar Blue, read-out: % of the activities in the presence of ~10 μM compound, Staphylococcus aureus) of the same molecule?
The activity at 10 µM was 38.1%.

What about the IC50 [5] of the same molecule?
The IC50 was 37 nM.

What about the IC50 [6] of the same molecule?
The IC50 was 280 nM.

And the IC50 [7]?
Its IC50 is 48 nM.
